Assay results reported in ChEMBL document CHEMBL1201862, “PubChem BioAssay data set” (2004).
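Compound exposure: 48 hours, 5 concentrations, 96-well plates. At the GI50, growth is halved.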 The source made the active and inactive calls. Rule as the data show it: active = GI50 up to about 1.1 µM and inactive = higher.

How the values were obtained:
Experiment in all cases: NCI-60 cell line screen, 48 h
[1] = tested on: UACC-62
[2] = tested on: SK-OV-3
[3] = tested on: MCF7
[4] = tested on: HOP-92
[5] = tested on: A498
[6] = tested on: RXF 393
[7] = tested on: TK-10
[8] = tested on: HCT-15
[9] = tested on: BT-549
[10] = tested on: PC-3
[11] = tested on: 786-0
[12] = tested on: HOP-62
[13] = tested on: EKVX
[14] = tested on: Malme-3M
[15] = tested on: OVCAR-4
[16] = tested on: M14
[17] = tested on: NCI-H226
[18] = tested on: RPMI-8226
[19] = tested on: Hs-578T

| SMILES | GI50 [1] | GI50 [2] | GI50 [3] | GI50 [4] | GI50 [5] | GI50 [6] | GI50 [7] | GI50 [8] | GI50 [9] | GI50 [10] | GI50 [11] | GI50 [12] | GI50 [13] | GI50 [14] | GI50 [15] | GI50 [16] | GI50 [17] | GI50 [18] | GI50 [19] |
| --- | --- | --- | --- | --- | --- | --- | --- | --- | --- | --- | --- | --- | --- | --- | --- | --- | --- | --- | --- |
| CC[C@@]1(O)C(=O)OCc2c1cc1n(c2=O)Cc2c-1nc1ccc(O)cc1c2CC[Si](C)(C)C | < 0.001 µM (active) | < 0.001 µM (active) | < 0.001 µM (active) | 0.0682 µM (active) | 0.00383 µM (active) | 0.00279 µM (active) | 0.0385 µM (active) | 0.102 µM | 0.0205 µM (active) | 0.141 µM (active) | < 0.001 µM (active) | < 0.001 µM (active) | 0.041 µM (active) | 0.016 µM (active) | 0.0291 µM (active) | < 0.001 µM (active) | 0.0194 µM (active) | 0.0131 µM (active) | 0.681 µM (active) |
| c1ncc(C23C4C5C6C4C2C6C53)[nH]1 (stereo unspecified) | > 100 µM (inactive) | > 100 µM (inactive) | > 100 µM (inactive) | > 100 µM (inactive) | > 100 µM (inactive) | > 100 µM (inactive) | > 100 µM (inactive) | > 100 µM | > 100 µM (inactive) | > 100 µM (inactive) | > 100 µM (inactive) | > 100 µM (inactive) | > 100 µM (inactive) | > 100 µM (inactive) | > 100 µM (inactive) | > 100 µM (inactive) | > 100 µM (inactive) | > 100 µM (inactive) | > 100 µM (inactive) |
| Cc1cc(S(=O)(=O)NC2=NCc3nc4ccccc4n32)c(S)cc1Cl | 17.1 µM (inactive) | – | 30.3 µM (inactive) | 18.7 µM (inactive) | 26.9 µM (inactive) | 12.9 µM (inactive) | 38.8 µM (inactive) | 24.7 µM | 23 µM (inactive) | 22.2 µM (inactive) | 21 µM (inactive) | – | 29.3 µM (inactive) | 22.5 µM (inactive) | 29.4 µM (inactive) | 23.7 µM (inactive) | 20 µM (inactive) | 20.3 µM (inactive) | 21.4 µM (inactive) |
| O=C1CCCC2=C1CC1=C(CCCC1=O)N2c1cccc([N+](=O)[O-])c1 | > 100 µM (inactive) | > 100 µM (inactive) | 64 µM (inactive) | – | > 100 µM (inactive) | 67.9 µM (inactive) | > 100 µM (inactive) | > 100 µM | > 100 µM (inactive) | > 100 µM (inactive) | > 100 µM (inactive) | – | > 100 µM (inactive) | – | > 100 µM (inactive) | > 100 µM (inactive) | > 100 µM (inactive) | > 100 µM (inactive) | > 100 µM (inactive) |
| COCCN(C(=O)c1ccccc1)C1CCC(=O)c2[nH]c3ccccc3c21 (stereo unspecified) | 17.8 µM (inactive) | 15.5 µM (inactive) | 6.27 µM (inactive) | 12.1 µM (inactive) | 19.1 µM (inactive) | 5.83 µM (inactive) | 20.3 µM (inactive) | 16.4 µM | 2.7 µM (inactive) | 5.25 µM (inactive) | 3.4 µM (inactive) | 5.22 µM (inactive) | 10.7 µM (inactive) | 7.21 µM (inactive) | 6.81 µM (inactive) | 7.11 µM (inactive) | 6.28 µM (inactive) | 17.7 µM (inactive) | 15.5 µM (inactive) |
| c1ccc2c(c1)c1c(n2CCOCCCN2CCCCC2)CCCC1 | – | – | 16.1 µM (inactive) | 22.7 µM (inactive) | 25.8 µM (inactive) | 11.4 µM (inactive) | 16.4 µM (inactive) | 14.2 µM | 15.5 µM (inactive) | 13.1 µM (inactive) | – | 16.3 µM (inactive) | 17.1 µM (inactive) | 18 µM (inactive) | 12.5 µM (inactive) | 27.9 µM (inactive) | 16.3 µM (inactive) | 31.1 µM (inactive) | 20.1 µM (inactive) |
| COc1ccc(NC(=S)c2ccc([N+](=O)[O-])o2)cc1 | 1.77 µM (inactive) | 12.3 µM (inactive) | 1.8 µM (inactive) | 7.8 µM (inactive) | 15.6 µM (inactive) | 1.99 µM (inactive) | 3.07 µM (inactive) | 0.895 µM | 1.85 µM (inactive) | 1.32 µM (inactive) | 1.97 µM (inactive) | 2.82 µM (inactive) | 2.92 µM (inactive) | 2.37 µM (inactive) | 1.55 µM (inactive) | 2.88 µM (inactive) | 0.82 µM (active) | 1.19 µM (inactive) | 2.33 µM (inactive) |
| O=C1CC2(CCC(O)(c3ccc4ccccc4c3)C(C(=O)c3ccc4ccccc4c3)C2)C(=O)c2ccccc2N1 (stereo unspecified) | > 100 µM (inactive) | > 100 µM (inactive) | 7.59 µM (inactive) | 5.69 µM (inactive) | > 100 µM (inactive) | > 100 µM (inactive) | > 100 µM (inactive) | > 10 µM | > 100 µM (inactive) | 4.27 µM (inactive) | – | > 100 µM (inactive) | > 100 µM (inactive) | > 100 µM (inactive) | – | 53.1 µM (inactive) | > 100 µM (inactive) | – | > 100 µM (inactive) |
